Laboratory results reported in ChEMBL document CHEMBL5316313, “Discovery of Novel 3-Phenylpiperidine Derivatives Targeting the β-Catenin/B-Cell Lymphoma 9 Interaction as a Single Agent and in Combination with the Anti-PD-1 Antibody for the Treatment of Colorectal Cancer” (J Med Chem, 2023).
Activity calls are given as the source filed them. The calls are words filed in the database; no cut-off is given here.

What was measured:
CT26 [1] = assay: Antitumor activity against mouse CT26 cells xenografted in BALB/c mouse assessed as tumor growth inhibition at 30 mg/kg, ip QD and measured upto 9 days in presence of anti-PD-1 antibody cotreatment at 10 mg/kg,ip BIW; type: functional; details: CT26, 216 h, time <= 9 day, read-out: TGI
CT26 [2] = assay: Induction of apoptosis in Wnt-dependent mouse CT26 cells assessed as late apoptotic cells at 20 uM incubated for 24 hrs by Annexin V-Alexa Fluor 647/PI staining based flow cytomtery (Rvb=9.96%); type: functional
[3] = Toxicity in BALB/c mouse xenografted with mouse CT26 cells assessed as pathological changes in lung at 30 mg/kg, ip QD in presence of anti-PD-1 antibody cotreatment at 10 mg/kg,ip BIW by hematoxylin and eosin staining based microscopic analysis; type: organism-based; details: in vivo
HCT-116 = assay: Induction of apoptosis in Wnt-dependent human HCT-116 cells assessed as necrotic cells at 20 uM incubated for 24 hrs by Annexin V-Alexa Fluor 647/PI staining based flow cytomtery (Rvb=1.47%); type: functional
Beta catenin-BCL9 = target: T1, Beta catenin-BCL9 (Mus musculus, UniProt Q02248+Q9D219); assay: Inhibition of beta-catenin/BCL9 protein-protein interaction in Wnt-dependent BCL9 knockdown mouse CT26 cells assessed as reduction in Axin2 expression level by qRT-PCR assay; type: cell-based
T1 sequence (Q02248 whole entry): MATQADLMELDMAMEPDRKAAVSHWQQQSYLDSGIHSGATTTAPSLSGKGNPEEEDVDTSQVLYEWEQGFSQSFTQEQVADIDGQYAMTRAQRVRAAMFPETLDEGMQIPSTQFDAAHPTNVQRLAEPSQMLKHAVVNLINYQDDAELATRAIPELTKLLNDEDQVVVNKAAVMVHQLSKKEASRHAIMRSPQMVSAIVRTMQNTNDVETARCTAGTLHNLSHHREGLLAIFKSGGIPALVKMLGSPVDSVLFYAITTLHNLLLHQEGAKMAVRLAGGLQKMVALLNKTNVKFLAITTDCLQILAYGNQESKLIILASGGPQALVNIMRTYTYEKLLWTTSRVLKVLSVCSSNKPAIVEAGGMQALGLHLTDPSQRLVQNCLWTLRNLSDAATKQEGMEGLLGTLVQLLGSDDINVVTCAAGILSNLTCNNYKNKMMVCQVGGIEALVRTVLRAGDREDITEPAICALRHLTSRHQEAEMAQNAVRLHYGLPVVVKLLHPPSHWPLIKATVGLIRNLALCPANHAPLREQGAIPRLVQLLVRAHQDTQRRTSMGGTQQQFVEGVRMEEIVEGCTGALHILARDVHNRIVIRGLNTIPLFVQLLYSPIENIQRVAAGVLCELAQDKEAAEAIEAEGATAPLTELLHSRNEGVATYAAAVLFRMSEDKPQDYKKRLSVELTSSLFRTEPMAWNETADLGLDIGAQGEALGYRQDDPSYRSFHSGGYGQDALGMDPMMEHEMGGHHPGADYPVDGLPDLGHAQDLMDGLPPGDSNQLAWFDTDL
T1 sequence (Q9D219 whole entry): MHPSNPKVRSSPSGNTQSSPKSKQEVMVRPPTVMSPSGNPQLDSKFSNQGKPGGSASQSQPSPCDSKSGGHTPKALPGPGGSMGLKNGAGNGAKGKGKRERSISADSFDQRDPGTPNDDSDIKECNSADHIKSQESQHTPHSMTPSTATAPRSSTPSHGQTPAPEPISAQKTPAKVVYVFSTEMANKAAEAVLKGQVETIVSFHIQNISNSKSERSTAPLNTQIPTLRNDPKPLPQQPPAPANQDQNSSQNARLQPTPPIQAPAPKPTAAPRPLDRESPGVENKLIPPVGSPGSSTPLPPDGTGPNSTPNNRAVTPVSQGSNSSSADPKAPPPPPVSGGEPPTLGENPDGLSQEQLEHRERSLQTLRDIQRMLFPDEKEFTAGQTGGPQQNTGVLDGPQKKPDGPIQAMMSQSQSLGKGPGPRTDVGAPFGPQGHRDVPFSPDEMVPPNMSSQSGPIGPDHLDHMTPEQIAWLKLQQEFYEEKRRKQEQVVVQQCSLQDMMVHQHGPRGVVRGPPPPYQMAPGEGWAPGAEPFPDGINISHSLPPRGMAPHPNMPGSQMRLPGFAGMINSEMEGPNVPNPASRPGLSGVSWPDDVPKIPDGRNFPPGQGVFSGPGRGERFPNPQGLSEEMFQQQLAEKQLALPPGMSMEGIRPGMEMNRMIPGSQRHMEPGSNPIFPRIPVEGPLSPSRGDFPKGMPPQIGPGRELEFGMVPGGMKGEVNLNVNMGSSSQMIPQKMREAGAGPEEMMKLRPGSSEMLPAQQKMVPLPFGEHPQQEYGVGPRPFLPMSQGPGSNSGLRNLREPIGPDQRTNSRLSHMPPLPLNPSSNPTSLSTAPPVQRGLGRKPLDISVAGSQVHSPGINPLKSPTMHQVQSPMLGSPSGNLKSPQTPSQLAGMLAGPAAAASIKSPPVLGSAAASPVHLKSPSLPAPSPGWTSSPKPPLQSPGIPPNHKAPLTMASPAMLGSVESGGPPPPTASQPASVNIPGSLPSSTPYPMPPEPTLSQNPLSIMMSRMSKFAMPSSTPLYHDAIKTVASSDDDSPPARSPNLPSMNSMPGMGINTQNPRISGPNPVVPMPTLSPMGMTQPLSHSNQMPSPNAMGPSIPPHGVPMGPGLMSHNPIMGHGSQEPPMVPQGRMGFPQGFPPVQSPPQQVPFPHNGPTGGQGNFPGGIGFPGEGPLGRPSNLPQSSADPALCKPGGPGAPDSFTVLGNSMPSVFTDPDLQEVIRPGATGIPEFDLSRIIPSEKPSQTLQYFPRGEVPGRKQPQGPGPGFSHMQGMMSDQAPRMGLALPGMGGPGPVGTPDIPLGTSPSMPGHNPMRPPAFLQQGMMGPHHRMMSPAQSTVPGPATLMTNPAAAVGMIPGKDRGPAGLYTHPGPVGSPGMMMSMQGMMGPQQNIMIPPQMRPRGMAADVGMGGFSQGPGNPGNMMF

HEK293 [4] = assay: Induction of apoptosis in Wnt-independent human HEK293 cells assessed as necrotic cells at 20 uM incubated for 24 hrs by Annexin V-Alexa Fluor 647/PI staining based flow cytomtery (Rvb=1.82%); type: functional
[5] = Toxicity in BALB/c mouse xenografted with mouse CT26 cells assessed as pathological changes in kidney at 30 mg/kg, ip QD by hematoxylin and eosin staining based microscopic analysis; type: organism-based; details: in vivo
CT26 [6] = assay: Antiproliferative activity against Wnt-dependent mouse CT26 cells assessed as cell growth inhibition incubated for 48 hrs by CellTiter-Glo assay; type: functional, cell-based
CT26 [7] = assay: Antitumor activity in mouse CT26 cells xenografted in BALB/c mouse assessed as increase in CD8+ T cell infiltration into tumor at 30 mg/kg, ip QD by flow cytometry; type: functional, organism-based
HEK293 [8] = assay: Induction of apoptosis in Wnt-independent human HEK293 cells assessed as necrotic cells at 10 uM incubated for 24 hrs by Annexin V-Alexa Fluor 647/PI staining based flow cytomtery (Rvb=1.82%); type: functional

- IC50 (Beta catenin-BCL9): 51.6 µM
SMILES: CC(C)c1ccc(-c2cccc(S(=O)(=O)N3CCCC(c4cccc(OC(C)(C)C(=O)NS(=O)(=O)c5ccc(C(F)(F)F)cc5)c4)C3)c2)cc1 (stereo not given)
- inhibition in vivo at 30 mg/kg (CT26 [1]): 81.1%
- Activity (CT26 [2]): 52.6%
- Activity [3]: Non-Toxic
- Activity (HCT-116): 3.22%
- Activity (HEK293 [4]): 1.69%
- Activity [5]: Non-Toxic
- Activity (CT26 [6]): Active
- Activity (CT26 [7]): Active
- Activity (HEK293 [8]): 2.28%
